# Where a SMILES comes first, the peptide text is derived from it. [ ]: non-standard residue; d: D form. AEEA = NCCOCCOCC(=O)O
# Columns and labels:
# UV13-1 tumour cells = experiment: murine skin tumour model, peptide trialled as vaccine antigen; type: in vivo, mice; details: 5 nmol sub-cutaneous 21 and 7 days prior to transfer of UV13-1 tumour cells
# Experimental: FIG. 1—Peptide administration leads to accelerated skin tumour growth. Mice received sub-cutaneous injections of mixtures containing 5 nmol peptide RP23 (SEQ ID NO:12) (solid line), PBS or liposome controls (dotted line) 21 and 7 days prior to transfer of UV13-1 tumour cells. […] Difference in survival was analysed statistically using a log-rank test.
# The inventors initially trialled RP23 (SEQ ID NO: 12) as a vaccine antigen in a murine skin tumour model. […] They then assessed whether RP23 could reduce inflammation in a murine model of contact dermatitis, using a contact hypersensitivity assay (FIG. 2a). […] Using RP23, the inventors carried out a dose-response assay to titrate the immune suppression. Using three doses in the low nanomole range (2, 5 or 10 nmol, about 0.3 0.8, 1.6 mg/kg), a dose-dependent reduction in ear swelling of up to 100% compared to controls was observed (FIG. 3c). […] Further, in a murine model of imiquimod-induced psoriasis (FIG. 4a), a single injection of RP23 reduced local erythema, skin thickness and scaling (FIG. 4b,c).
# C57BL/6 mice = experiment: imiquimod-induced psoriasis model; type: in vivo
# Experimental: FIG. 4—Peptide administration reduces local disease severity in a mouse model of psoriasis. (A) Experimental outline (B) Clinical scores of mice receiving PBS or peptide RP23 (SEQ ID NO:12) injection, compared to daily (0-4 days) topical application of glucocorticoid on the back and ear. (C) Measures of disease local to the peptide RP23 injection site. Redness was measured using an unbiased erythema meter and skin thickness by manual callipers. (D) Spleen weight at day 5 as a measure of systemic immune suppression. […] Data are presented as mean±S.E.M. Statistical significance was determined by ANOVA with Dunnett's multiple comparison test, *p<0.05, **p<0.01, ***p<0.001, ****p<0.0001.
# FIG. 10. Therapeutic synergy of RP23 and topical steroid in the murine imiquimod-induced psoriasis model. Aldara cream (5% imiquimod, 57.5 mgs) was applied daily (days 0-4) to the backs of C57BL/6 female mice to induce psoriasis. Clinical scores (PASI), modified psoriasis area and severity index) of mice receiving (A) PBS or RP23 injection at day −1, with or without topical application of glucocorticoid (0.05% betamethasone dipropionate, “BD” 30 mgs) on the back at day 0 (B) PBS or RP23 injection at day 1 and topical application of glucocorticoid at day 1, in comparison to PBS injection only at day −1. Data are the means+/−SEM (n=5). Statistical significance was determined by ANOVA with Dunnett's multiple comparison test to PBS only control, *p<0.05, **p<0.01, ***p<0.001, ****p<0.0001.
# The backs of 8-week old female C57BL/6 mice (Australian BioResources) were coarse shaved. A minimum of 24 hours later, 10 nmol RP23 was delivered via sub-cutaneous injection at the lower back in 200 μl phosphate buffered saline (PBS). Groups of mice acting as positive controls for disease development received injection of PBS only. One or seven days later, psoriasis-like inflammation was induced via topical application of 5% imiquimod cream (Aldara, Inova Pharmaceuticals) to the shaved back (57.5 mgs) and one ear (5 mg, divided between dorsal and ventral sides). The contralateral ear served as a negative control for imiquimod-induced inflammation. Imiquimod application was repeated daily for four consecutive days. C57BL/6 mice experience rapid weight loss (up to 20%) upon application of imiquimod cream. Supportive care was provided in the form of dietary supplementation commenced 2 days prior to imiquimod application, and intra-peritoneal injection of 300 μl sterile PBS on days two and three of imiquimod application. Disease progression was monitored for five days, by recording weight loss and grading disease of the back skin using a modified Psoriasis Area and Severity Index (PASI) clinical scoring system, that assessed only disease severity. Additionally, erythema meter (DSM II ColorMeter, Cortex Technology, Denmark) readings were taken at four quadrants on the back skin and skin backfold thickness measurements were recorded using manual callipers. Disease progression of the ear skin was determined by recording ear thickness, measured by manual callipers. As a positive control for immune suppressive therapy, groups of mice received daily topical application of betamethasone dipropionate 0.05% (MSD) cream (30 mgs on the back, 10 mgs on the ear).
# Aldara cream (5% imiquimod, 57.5 mgs) was applied daily (days 0-4) to the backs of C57BL/6 female mice to induce psoriasis. Clinical scores (PASI, modified psoriasis area and severity index) of mice receiving prophylactic PBS or RP23 (at day −1), with or without topical application of glucocorticoid (0.05% betamethasone dipropionate, 30 mgs) to the back at day 0, were determined (FIG. 10A).
# RP23 and BD therapy were also tested when given synergistically at a therapeutic timepoint (at day 1). Psoriasis was induced as above, but clinical scores were determined daily for 10 days after ceasing imiquimod application at day 5, to record the rate and degree of psoriasis disease resolution (FIG. 10B).
# [1] = system: primary human blood derived macrophages; experiment: LPS- or imiquimod-stimulated human blood derived macrophages, cytokine ELISA; type: cell-based; details: after stimulation with either LPS or imiquimod
# Experimental: FIG. 5—Peptide administration reduces the activation of pro-inflammatory DCs and macrophages. (A) C57BL/6 murine splenocytes were stimulated with LPS±peptide RP23 (SEQ ID NO:12) and expression of activation markers on DCs was assessed by flow cytometry. (B) Bone marrow derived murine macrophages were incubated with peptide RP23 (30 mins) and stimulated with LPS (overnight). Positive controls were stimulated with LPS only. Negative controls were unstimulated. Inflammatory cytokine production was assessed by ELISA. (C) CD14+ cells were isolated from human blood and differentiated into macrophages by culturing with human serum. Cells were incubated with peptide RP23 (30 mins), then stimulated overnight with LPS (left panel) or imiquimod (right panel). Inflammatory cytokine (IL-6 or IL-12/23) production was assessed by ELISA. Representative of 6 donors. Data are presented as mean±S.E.M. Statistical significance was determined by ANOVA with Dunnett's multiple comparison test, *p<0.05, **p<0.01, ***p<0.001.
# Using an in vitro culture system, it was determined whether RP23 could suppress the activity of specific pro-inflammatory immune cells. […] The culture of murine bone marrow derived macrophages with RP23 led to reduced IL-6, MCP-1 and TNF release after LPS-stimulation (FIG. 5b). […]
# dermal dendritic cells = experiment: intradermal injection into healthy human skin explants, myeloid cell activation; type: cell-based; details: intra-dermal injection, overnight culture
# Experimental: FIG. 7—Peptide administration reduces spontaneous myeloid cell activation in human skin. (A) Peptide RP23 (SEQ ID NO: 12) was injected intradermally into healthy human skin grafts. Myeloid cell activation was assessed after overnight culture. (B) The effect of peptide RP23 on the spontaneous upregulation of activation markers on myeloid cell subsets in the skin. Data are representative of 6 donors.
# Using an in vitro culture system, it was determined whether RP23 could suppress the activity of specific pro-inflammatory immune cells. […] The culture of murine bone marrow derived macrophages with RP23 led to reduced IL-6, MCP-1 and TNF release after LPS-stimulation (FIG. 5b). Similarly, primary human blood derived macrophages had reduced IL-6 and IL-12/23 release after stimulation with either LPS or imiquimod (FIG. 5c).
structure (smiles),measurement,setting,value
CSCC[C@H](NC(=O)COCCOCCNC(=O)[C@H](CCCCN)NC(=O)[C@H](CCCCN)NC(=O)[C@H](CCCCN)NC(=O)[C@@H](N)CCCCN)C(=O)N[C@H](C(=O)N1CCC[C@H]1C(=O)NCC(=O)N[C@H](C(=O)N[C@@H](CCC(N)=O)C(=O)N[C@@H](CO)C(=O)N1CCC[C@H]1C(=O)N[C@@H](Cc1ccccc1)C(=O)N[C@@H](Cc1ccccc1)C(=O)N[C@@H](CC(C)C)C(=O)N[C@@H](CC(C)C)C(=O)N[C@@H](CC(C)C)C(=O)N[C@@H](CC(C)C)C(=O)N[C@@H](CC(C)C)C(=O)N[C@H](C(=O)N[C@H](C(=O)N[C@@H](CC(C)C)C(=O)N[C@H](C(=O)N[C@H](C(=O)N[C@H](C(=O)O)C(C)C)C(C)C)[C@@H](C)O)C(C)C)[C@@H](C)O)[C@@H](C)O)[C@@H](C)O [RP23] (H-KKKK[AEEA]MTPGTQSPFFLLLLLTVLTVV-OH),skin tumour growth,UV13-1 tumour cells,modest increase in tumour growth
same,survival of tumour-bearing mice,UV13-1 tumour cells,succumbed to their tumour earlier
same,disease at a distal site (ear thickness),"C57BL/6 mice; injection at lower back, ear measured",did not suppress disease at a distal site
same,local erythema,C57BL/6 mice; single injection,reduced
same,scaling,C57BL/6 mice; single injection,reduced
same,skin thickness,C57BL/6 mice; single injection,reduced
same,systemic immune suppression / locality of effect,"C57BL/6 mice; spleen weight at day 5, distal ear thickness (FIG. 4d)",isolated to the area in which RP23 was delivered
same,IL-6 release,[1],reduced
same,IL-12/23 release,[1],reduced
same,spontaneous activation of dermal dendritic cells,dermal dendritic cells,reduced spontaneous activation of dermal dendritic cells

# — patent US20230002446A1, “ANTI-INFLAMMATORY AGENTS” (The University of Sydney, priority 2019, published 2023)
